Measured values reported in publication PMC9396657, “Directed Evolution of (R)-2-Hydroxyglutarate Dehydrogenase Improves 2-Oxoadipate Reduction by 2 Orders of Magnitude” (ACS Synthetic Biology, 2022).

Experiments:
Test in all cases: NADH oxidation at […] nm, initial rates
Type in all cases: biochemical
Hgdh [1] = molecular target: T1, Hgdh (Acidaminococcus fermentans, UniProt D2RJU7, V11K/V11M/A206V/A214D/K307I, form not given); settings: 0.25 mM NADH, 50 mM phosphate pH 8, 25 °C, apparent, residue 11 contradictory: V11K, A2 is the extra cloning Ala
T1 construct: full length, codon-optimized, expressed in E. coli BL21(DE3) from pET-28b, extra Ala after start Met, C-terminal thrombin site and His tag (kept), homodimer of 75 kDa

Hgdh [2] = molecular target: T2, Hgdh (Acidaminococcus fermentans, UniProt D2RJU7); settings: 0.25 mM NADH, 50 mM phosphate pH 8, 25 °C; apparent (Km of NADH not determined)
T2 construct: full length, codon-optimized, expressed in E. coli BL21(DE3) from pET-28b, extra Ala after start Met, C-terminal thrombin site and His tag (kept), homodimer of 75 kDa

Hgdh [3] = molecular target: T3, Hgdh (Acidaminococcus fermentans, UniProt D2RJU7, V11K/V11M/A206V/A214V/V312I, form not given); settings: 0.25 mM NADH, 50 mM phosphate pH 8, 25 °C, apparent, residue 11 contradictory: V11K, A2 is the extra cloning Ala
T3 construct: full length, codon-optimized, expressed in E. coli BL21(DE3) from pET-28b, extra Ala after start Met, C-terminal thrombin site and His tag (kept), homodimer of 75 kDa

Hgdh [4] = molecular target: T4, Hgdh (Acidaminococcus fermentans, UniProt D2RJU7, V11K/V11M/A206V/A214V/E304K, form not given); settings: 0.25 mM NADH, 50 mM phosphate pH 8, 25 °C, apparent, residue 11 contradictory: V11K, A2 is the extra cloning Ala
T4 construct: full length, codon-optimized, expressed in E. coli BL21(DE3) from pET-28b, extra Ala after start Met, C-terminal thrombin site and His tag (kept), homodimer of 75 kDa
T4 sequence (D2RJU7 whole entry, stated change not applied): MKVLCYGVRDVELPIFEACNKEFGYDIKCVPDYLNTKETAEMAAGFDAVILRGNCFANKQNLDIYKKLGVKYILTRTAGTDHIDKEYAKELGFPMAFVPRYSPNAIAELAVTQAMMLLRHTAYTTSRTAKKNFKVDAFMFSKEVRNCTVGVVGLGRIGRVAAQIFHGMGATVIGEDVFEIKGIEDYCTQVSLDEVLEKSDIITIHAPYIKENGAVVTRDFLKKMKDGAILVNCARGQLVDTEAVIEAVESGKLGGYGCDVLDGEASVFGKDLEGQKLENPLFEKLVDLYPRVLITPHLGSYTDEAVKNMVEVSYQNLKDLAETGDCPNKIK

T1 sequence (D2RJU7 whole entry, stated change not applied): as above
T3 sequence (D2RJU7 whole entry, stated change not applied): as above
T2 sequence (D2RJU7 whole entry): as the sequence (D2RJU7 whole entry, stated change not applied) above

Km (Hgdh [1]): 3.05 ± 0.24 mM
Km (Hgdh [2]): 2.96 ± 0.24 mM
Km (Hgdh [3]): 9.72 ± 0.67 mM
Km (Hgdh [4]): 4.18 ± 0.2 mM
SMILES: O=C(O)CCCC(=O)C(=O)O [2-oxoadipate]
